“Also recorded” adds a separate entry of the source.
How the values were obtained:
[1] = system: cancer stem cell population (ZsGreen+) established from pancreatic cancer cell line Panc-1; experiment: Screening of miRNAs: cell count (cell viability) of the cancer stem cell population after transfection; format: cell-based, human; settings: miRNA 10 pmol/well, lipofectamin 2000, cells counted 48 and 72 hours later, FIG. 4
From the text: A cancer stem cell line was established by transducing a pancreatic cancer cell line (Panc-1) with an ODC (Ornithine Decarboxylase)-Degron system capable of visualizing low metabolism that is a property of cancer stem cells using a retrovirus vector (FIG. 1a). The base sequence coding the used ODC-Degron is as set forth in SEQ ID NO: 10. Usually, cancer stem cells are so 26s proteasome hypometabolic that they cannot degrade the introduced fluorescently labeled Ornithine Decarboxylase Degron, and thus the fluorescent protein sufficiently accumulates to provide visualization.
However, even when the ODC-degron system was introduced into the pancreatic cancer cell line Panc-1, only about 0.06% cells emitting fluorescence (green) were obtained in total. With such a small number of cancer stem cells, a series of experiments including drug screening cannot be performed. Accordingly, further enrichment of cancer stem cells provided a cancer stem cell population in which cells having observed fluorescent coloring (i.e., cancer stem cells) accounted for about 81.18% in total (FIG. 1b). The obtained cancer stem cell population was designated as ZsGreen+.
A cell suspension prepared by suspending the cancer stem cell population (ZsGreen+) in a medium (DMEM medium containing 10% by volume FBS) was seeded in each well of a 24-well plate at a density of 5000 to 10000 cells/well, followed by culture at 37° C. overnight. Thereafter, according to the lipofectamin 2000 protocol, each miRNA was transfected at 10 pmol/well, and 48 hours and 72 hours later, the cells were counted. In addition, tests were also conducted under the same condition on a case where the miRNA was not introduced (untreated group, control), a case where has-miR-34a (SEQ ID NO: 8) was used (positive control) in place of the selected miRNA, and a case where a control miRNA (SEQ ID NO: 9) was used (NC1, negative control) in place of the selected miRNA. In addition, for comparison, the non-cancer stem cell population (ZsGreen−) was used in place of the cancer stem cell population (ZsGreen+) to conduct tests under the same condition.
The ratio of the number of cells under each condition to the number of control cells into which the miRNA was not introduced (cell viability, %) was determined.

[2] = system: human large bowel cancer cells (DLD1 line); experiment: Antitumor effect on human large bowel cancer cells, cell count after transfection; format: cell-based; settings: 10 pmol/well, FIG. 11; for antitumor effect: 72 hours, positive control hsa-miR-34a; for proliferation inhibitory effect on large bowel cancer cells: cells counted 72 hours after transfection
Method: (§1) A cell suspension prepared by suspending human pancreatic cancer cells (Bxpc3 line) in D-MEM medium (containing 10% by volume FBS) was seeded in each well of a 24-well plate at 3×10^3 cells/well, followed by culture at 37° C. overnight. Thereafter, according to the lipofectamin 2000 protocol, each miRNA was transfected at 10 pmol/well, and 48 hours later, the cells were counted. In addition, tests were also conducted under the same condition on a case where the miRNA was not introduced (untreated group), a case where hsa-miR-34a (SEQ ID NO: 8) was used (positive control) in place of the miRNA, and a case where a control miRNA (SEQ ID NO: 9) was used (control miRNA, negative control) in place of the selected miRNA.
(§2) As to hsa-miR-136-5p, hsa-miR-3065-3p, hsa-miR-4727-5p, hsa-miR-378g, hsa-miR-181a-5p, hsa-miR-362-5p and hsa-miR-608, evaluation was performed of the antitumor effect on human large bowel cancer cells. The specific test method is the same as that for Test Example 4 except that human large bowel cancer cells (DLD1 line) were used as cancer cells, and that the cells were counted 72 hours after transfection.

[3] = system: human pancreatic cancer cells (Bxpc3 line); experiment: Antitumor effect on human pancreatic cancer cells (1), cell count after transfection; format: cell-based; settings: 10 pmol/well, FIG. 8; for antitumor effect: 48 hours, positive control hsa-miR-34a; for proliferation inhibitory effect on pancreatic cancer cells: cells counted 48 hours later
Method: as §1

[4] = system: human esophageal cancer cells (TE11 line); experiment: Antitumor effect on human esophageal cancer cells, cell count after transfection; format: cell-based; settings: 10 pmol/well, FIG. 12; for antitumor effect: 72 hours, positive control hsa-miR-34a; for proliferation inhibitory effect on esophageal cancer cells: cells counted 72 hours after transfection
Method: as §1
as §2, with “hsa-miR-378g and” for “hsa-miR-378g,”, “hsa-miR-181a-5p,” for “hsa-miR-181a-5p, hsa-miR-362-5p and hsa-miR-608,”, “esophageal” for “large bowel”, “(TE11” for “(DLD1”

Substance	proliferation inhibitory effect on cancer stem cells (cell viability) [1]	antitumor effect [2]	proliferation inhibitory effect on large bowel cancer cells [2]	antitumor effect [3]	proliferation inhibitory effect on pancreatic cancer cells [3]	antitumor effect [4]	proliferation inhibitory effect on esophageal cancer cells [4]
has-miR-34a: positive control miRNA (SEQ ID NO: 8), conventionally considered to have the highest therapeutic effect on solid tumor (UGGCAGUGUCUUAGCUGGUUGU; listed as RNA, chemistry not given here; listed as Homo sapiens) [reference compound]	not sufficient						
hsa-miR-362-5p: human-derived miR-362-5p; base sequence set forth in SEQ ID NO: 6 as mature miRNA (AAUCCUUGGAACCUAGGUGUGAGU; listed as RNA, chemistry not given here; listed as Homo sapiens)	effectively suppress proliferation of cancer stem cells; also recorded: prominent proliferation inhibitory effect	much better antitumor effect than that of hsa-miR-34a; also recorded: particularly remarkable antitumor effect	strong proliferation inhibitory effect				
hsa-miR-378g: human-derived miR-378g; base sequence set forth in SEQ ID NO: 4 as mature miRNA (ACUGGGCUUGGAGUCAGAAG; listed as RNA, chemistry not given here; listed as Homo sapiens)	effectively suppress proliferation of cancer stem cells	much better antitumor effect than that of hsa-miR-34a	strong proliferation inhibitory effect	much better antitumor effect than that of hsa-miR-34a	strong proliferation inhibitory effect	much better antitumor effect than that of hsa-miR-34a	strong proliferation inhibitory effect
hsa-miR-608: human-derived miR-608; base sequence set forth in SEQ ID NO: 7 as mature miRNA (AGGGGUGGUGUUGGGACAGCUCCGU; listed as RNA, chemistry not given here; listed as Homo sapiens)	effectively suppress proliferation of cancer stem cells; also recorded: prominent proliferation inhibitory effect	much better antitumor effect than that of hsa-miR-34a; also recorded: particularly remarkable antitumor effect	strong proliferation inhibitory effect				
hsa-miR-4727-5p: human-derived miR-4727-5p; base sequence set forth in SEQ ID NO: 3 as mature miRNA (AUCUGCCAGCUUCCACAGUGG; listed as RNA, chemistry not given here; listed as Homo sapiens)	effectively suppress proliferation of cancer stem cells	much better antitumor effect than that of hsa-miR-34a	strong proliferation inhibitory effect	much better antitumor effect than that of hsa-miR-34a	strong proliferation inhibitory effect	much better antitumor effect than that of hsa-miR-34a	strong proliferation inhibitory effect
